Laboratory results taken from EP4203925B1, “CANNABINOID COMBINATIONS AND THEIR USE IN THE TREATMENT OF CANCER” (priority 2020, dated 2022).
“And” between values parts separate entries of the source, which are not always exact repeats. Identical values can stand only once. “Also recorded” adds a separate entry of the source. Like-named read-outs stand apart in the source and are kept apart here.

Tests used:
breast cancer cell lines = assay: MTT cell viability / checkerboard assay, cell line not given; conditions: Homo sapiens, read-out: IC50 values
MDA-MB-231 cells = assay: MTT cell viability assay with Chou-Talalay median-effect / combination index analysis; conditions: for IC50 / IC90 / IC75: Homo sapiens, MDA-MB-231, 48 h; for IC50: read-out: Dm (µM) IC50; for IC90: read-out: Dm (µM) IC90; for IC75: read-out: Dm (µM) IC75
MCF-7 cells = assay: as above; conditions: for IC50 / IC90 / IC75: Homo sapiens; for IC90: read-out: Dm (µM) IC90; for IC75: read-out: Dm (µM) IC75
white blood cells = assay: Toxicity screening in white blood cells (MTT); assay type: cell-based, human; conditions: B6 (42 µM), C6 (43 µM), 24 hours
Method: MTT solution (5mg/ml, 20 µl) was added to existing media in the wells and the cells were incubated for 3 hours at 37 °C. After the 3 hours, the plate was centrifuged at 1000 x g for 10 minutes, the spent media removed and the formazan crystals solubilised in 100 µl DMSO. The plate was then shaken for 1 minute and the absorbance read at 550nm.
Blood samples were obtained from healthy volunteers (n=3, 16 ml/person) in ethylenediaminetetraacetic acid (EDTA) vacutainers. The samples were centrifuged at 500 x g for 10 minutes, the plasma (top layer) removed and the buffy coat collected. The buffy coat was then centrifuged at 2000 x g for 10 minutes to remove residual plasma while retaining the buffy coat. Lysis buffer (0.16M NH4Cl, 0.01 M KHCO3, 6 mM EDTA; pH 7.3) was added to the buffy coat in a 9:1 ratio (lysis buffer:buffy coat) and the mixture vortexed for 10 seconds, followed by a 10 minute incubation at room temperature. The sample was then centrifuged at 2000 x g for 10 minutes and the pellet retained (containing white blood cells). […] White blood cells were stained with trypan blue and counted using a haemocytometer. […]
The potential toxicity induced by the selected treatments (B6 and C6) were evaluated in two ways: 1) screening in the normal breast cells, MCF-10A and 2) determining the cytotoxicity to white blood cells isolated from human volunteers (Figure 14).

[1] = MCF7, 48 h, read-out: Dm (µM) IC50
[2] = MCF7, read-out: Required concentration of cannabinoids: Individual

## CCCCCc1cc(O)c2c(c1)OC(C)(C)[C@@H]1CCC(C)=C[C@@H]21 [THC, Δ^9-tetrahydrocannabinol]
Breast cancer cell lines
  IC50: 32 µM
MDA-MB-231 cells
  Dm (µM) IC75: 38.33 µM
  IC50: 30 µM
  IC90: 49 µM
MCF-7 cells
  Dm (µM) IC75: 43.11 µM
  Required concentration of cannabinoids: Individual: 39.23 µM (2×) and 47.24 µM (2×)
MCF-7 cells; [1]
  IC50: 32.2 µM
MCF-7 cells; MCF7, 48 h
  IC90: 57.7 µM
MCF-7 cells; [2]
  IC50: 32.6 µM

## CC[C@@]1(O)C(=O)OCc2c1cc1n(c2=O)Cc2cc3ccccc3nc2-1 [camptothecin]
White blood cells
  growth inhibition / cytotoxicity: lack of growth inhibition; also recorded: limited cytotoxicity

## C=C(C)[C@@H]1CCC(C)=C[C@H]1c1c(O)cc(CCCCC)cc1O [CBD, cannabidiol]
Breast cancer cell lines
  IC50: 19 µM
MDA-MB-231 cells
  IC50: 14.7 µM
  IC75: 26.4 µM
  IC90: 47.4 µM
MCF-7 cells; [1]
  IC50: 20.6 µM
MCF-7 cells; MCF7, 48 h
  IC75: 30.2 µM
  IC90: 44.4 µM
MCF-7 cells; [2]
  IC50: 20.6 µM

## CCCCCc1cc(O)c2c(c1)OC(C)(C)c1ccc(C)cc1-2 [CBN, cannabinol]
Breast cancer cell lines
  IC50: 25 µM
MDA-MB-231 cells
  IC50: 22.5 µM
  IC75: 25.7 µM
  IC90: 29.3 µM
MCF-7 cells; [1]
  IC50: 23.4 µM
MCF-7 cells; MCF7, 48 h
  IC75: 26.6 µM
  IC90: 30.2 µM
MCF-7 cells; [2]
  IC50: 23.4 µM

## CCCCCc1cc(O)c(C/C=C(\C)CCC=C(C)C)c(O)c1 [CBG, cannabigerol]
Breast cancer cell lines
  IC50: 30 µM
MDA-MB-231 cells
  IC50: 24.9 µM
  IC75: 28.1 µM
  IC90: 31.8 µM
MCF-7 cells; [1]
  IC50: 26.9 µM
MCF-7 cells; MCF7, 48 h
  IC75: 33 µM
  IC90: 40.5 µM
MCF-7 cells; [2]
  IC50: 26.9 µM
